Patent publication US4940780A, “Basically substituted phenylacetonitriles, their preparation and drugs containing these compounds” (BASF Aktiengesellschaft, priority 1986, dated 1990)
Structures can show the parent of a compound that is named as a salt.

How the values were obtained:
serotonin-S2-receptor = molecular target: T1, serotonin-S2-receptor (Rattus norvegicus, UniProt P14842); assay: Bond to the serotonin-S2-receptor: displacement of the specific ^3H-ketanserine bond in membrane preparations of cerebral cortex of the rat; type: binding; settings: rat cerebral cortex membranes; 1 nM ^3H-ketanserine; 60 minutes, room temperature; 10^-10 to 10^-6 M test substance
T1 construct: membrane preparations of cerebral cortex of the rat; from tissue; host or cells: rat cerebral cortex, membrane preparation
T1 sequence (P14842 whole entry): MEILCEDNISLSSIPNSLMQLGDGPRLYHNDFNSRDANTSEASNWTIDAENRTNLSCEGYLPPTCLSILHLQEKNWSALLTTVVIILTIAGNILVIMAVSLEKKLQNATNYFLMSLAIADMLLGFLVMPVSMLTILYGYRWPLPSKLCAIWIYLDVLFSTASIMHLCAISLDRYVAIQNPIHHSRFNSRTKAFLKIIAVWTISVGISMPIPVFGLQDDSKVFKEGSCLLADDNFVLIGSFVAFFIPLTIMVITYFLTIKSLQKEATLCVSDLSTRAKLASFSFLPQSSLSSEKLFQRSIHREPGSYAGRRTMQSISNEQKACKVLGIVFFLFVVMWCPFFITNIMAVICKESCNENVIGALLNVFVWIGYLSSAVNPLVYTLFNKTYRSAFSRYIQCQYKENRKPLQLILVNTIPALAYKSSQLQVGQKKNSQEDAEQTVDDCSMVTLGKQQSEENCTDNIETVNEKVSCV
Procedure: (b) Bond to the serotonin-S2 -receptor
Displacement of the specific ^3 H-ketanserine bond in membrane preparations of cerebral cortex of the rat
(§1) Membrane homogenate was incubated for 60 minutes at room temperature with increasing concentrations (from 10^-10 to 10^-6 M) of test substance and a fixed concentration of 1 nM of radioligand ((S)-^3 H-devapamil or ^3 H-ketanserine). The bound and the free radioligand were separated by filtration over a glass fiber filter, and the amount of radioligand retained on the filter was determined by liquid scintillation measurement. 2 tests with 3 batches were carried out.
(§2) The competition constants (Ki values in nM) were calculated by nonlinear regression analysis on an IBM computer using the program Ligand from Munson and Rodbard (Analytical Biochemistry 107 (1980), 220).

calcium channel = molecular target: T2, calcium channel (Cavia porcellus, UniProt A0A286X7I0); assay: Bond to the calcium channel: displacement of the specific (S)-^3H-devapamil bond in membrane preparations of guinea pig skeletal muscle; type: binding; settings: guinea pig skeletal muscle membranes; 1 nM (S)-^3H-devapamil; 60 minutes, room temperature; 10^-10 to 10^-6 M test substance
T2 construct: membrane preparations of guinea pig skeletal muscle; from tissue; host or cells: guinea pig skeletal muscle, membrane preparation
T2 sequence (A0A286X7I0 1-1867): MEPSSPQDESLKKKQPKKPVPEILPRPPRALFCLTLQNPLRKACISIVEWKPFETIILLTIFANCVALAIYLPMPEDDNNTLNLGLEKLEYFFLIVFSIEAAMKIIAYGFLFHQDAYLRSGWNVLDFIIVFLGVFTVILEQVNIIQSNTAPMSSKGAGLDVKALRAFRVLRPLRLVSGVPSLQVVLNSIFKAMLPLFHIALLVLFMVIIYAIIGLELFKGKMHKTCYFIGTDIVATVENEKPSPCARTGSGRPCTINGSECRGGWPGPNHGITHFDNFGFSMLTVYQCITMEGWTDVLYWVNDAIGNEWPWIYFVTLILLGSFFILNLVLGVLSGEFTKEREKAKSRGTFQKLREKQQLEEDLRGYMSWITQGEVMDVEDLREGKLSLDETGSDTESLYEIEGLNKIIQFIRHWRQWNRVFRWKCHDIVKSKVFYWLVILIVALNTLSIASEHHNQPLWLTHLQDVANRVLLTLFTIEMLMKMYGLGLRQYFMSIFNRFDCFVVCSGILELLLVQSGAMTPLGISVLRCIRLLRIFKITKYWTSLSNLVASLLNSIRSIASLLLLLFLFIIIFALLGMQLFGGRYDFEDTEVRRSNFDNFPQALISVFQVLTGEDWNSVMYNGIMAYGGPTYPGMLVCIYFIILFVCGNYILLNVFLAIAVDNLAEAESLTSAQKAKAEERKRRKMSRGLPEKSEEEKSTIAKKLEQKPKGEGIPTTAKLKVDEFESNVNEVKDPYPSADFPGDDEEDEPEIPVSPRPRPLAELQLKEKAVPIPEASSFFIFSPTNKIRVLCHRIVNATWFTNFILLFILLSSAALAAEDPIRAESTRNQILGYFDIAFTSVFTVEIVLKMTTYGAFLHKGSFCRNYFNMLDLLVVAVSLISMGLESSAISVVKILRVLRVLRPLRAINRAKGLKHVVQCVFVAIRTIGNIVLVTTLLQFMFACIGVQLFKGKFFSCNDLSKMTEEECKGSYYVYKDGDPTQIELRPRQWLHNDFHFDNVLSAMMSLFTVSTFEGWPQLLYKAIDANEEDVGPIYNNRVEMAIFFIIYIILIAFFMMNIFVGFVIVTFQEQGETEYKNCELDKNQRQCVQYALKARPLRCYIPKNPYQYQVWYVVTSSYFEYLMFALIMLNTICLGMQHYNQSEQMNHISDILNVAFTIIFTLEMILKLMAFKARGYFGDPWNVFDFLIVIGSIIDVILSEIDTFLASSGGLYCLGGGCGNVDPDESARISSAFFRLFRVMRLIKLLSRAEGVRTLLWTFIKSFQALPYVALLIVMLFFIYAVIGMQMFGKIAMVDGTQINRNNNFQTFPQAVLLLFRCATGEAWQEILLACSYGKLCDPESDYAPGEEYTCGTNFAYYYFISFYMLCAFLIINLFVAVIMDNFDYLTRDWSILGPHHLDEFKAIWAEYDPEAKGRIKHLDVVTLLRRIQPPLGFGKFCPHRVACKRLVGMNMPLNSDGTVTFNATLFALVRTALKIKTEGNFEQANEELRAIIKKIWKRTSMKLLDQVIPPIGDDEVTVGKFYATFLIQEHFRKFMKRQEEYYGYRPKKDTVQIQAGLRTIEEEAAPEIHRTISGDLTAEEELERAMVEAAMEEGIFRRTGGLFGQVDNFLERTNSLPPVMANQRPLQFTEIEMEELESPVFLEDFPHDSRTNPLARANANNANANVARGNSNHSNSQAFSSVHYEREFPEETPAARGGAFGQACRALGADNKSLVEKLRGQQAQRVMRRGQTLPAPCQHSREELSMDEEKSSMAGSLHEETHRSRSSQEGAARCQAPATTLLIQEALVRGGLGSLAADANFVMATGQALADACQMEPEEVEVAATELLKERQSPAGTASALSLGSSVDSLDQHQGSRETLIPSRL
Procedure: (a) Bond to the calcium channel Displacement of the specific (S)-^3 H-devapamil bond in membrane preparations of guinea pig skeletal muscle
as §1, §2

SMILES	Ki (serotonin-S2-receptor) [nM]	Ki (calcium channel) [nM]
COc1cccc(C(C#N)(CCCN(C)CCC2CCCCC2)C(C)C)c1 (stereo not drawn) [Example 1, 5-[N-methyl-N-(2-cyclohexyl)-ethyl]-amino-2-(3-methoxyphenyl)-2-isopropylvaleronitrile]	5	16.2
CCCCCCCCCCN(C)CCCC(C#N)(c1cc(OC)c(OC)c(OC)c1)C(C)C (stereo not drawn) [Example 2, 5-[N-methyl-N-(n-decyl)]-amino-2-(3,4,5-trimethoxyphenyl)-2-isopropylvaleronitrile]	21	19.1
CCCCCCCCN(C)CCCC(C#N)(c1cc(OC)c(OC)c(OC)c1)C(C)C (stereo not drawn) [Example 4, 5-[N-methyl-N-(n-octyl)]-amino-2-(3,4,5-trimethoxyphenyl)-2-isopropylvaleronitrile]	26.4	5.2
CCOc1cc(OCC)cc(C(C#N)(CCCN(C)CCC2CCCCC2)C(C)C)c1 (stereo not drawn) [Example 5, 5-[N-methyl-N-(2-cyclohexyl)-ethyl]-amino-2-(3,5-diethoxyphenyl)-2-isopropylvaleronitrile]	20	11.9
CCCCCCCCN(C)CCC[C@@](C#N)(c1cc(OC)c(OC)c(OC)c1)C(C)C [Example 6, (S)-5-[N-methyl-N-(n-octyl)]-amino-2-(3,4,5-trimethoxyphenyl)-2-isopropylvaleronitrile]	11.2	2.9
COc1cc(OC)cc(C(C#N)(CCCN(C)CCC2CCCCC2)C(C)C)c1 (stereo not drawn) [Example 10, 5-[N-methyl-N-(2-cyclohexyl)-ethyl]-amino-2-(3,5-dimethoxyphenyl)-2-isopropylvaleronitrile]	2.8	9.2
COc1cc(C(C#N)(CCCN(C)CCC2CCCCC2)C(C)C)cc(OC)c1OC (stereo not drawn) [Example 11, 5-[N-methyl-N-(2-cyclohexyl)-ethyl]-amino-2-(3,4,5-trimethoxyphenyl)-2-isopropylvaleronitrile]	10.7	5.8
COc1cc([C@](C#N)(CCCN(C)CCC2CCCCC2)C(C)C)cc(OC)c1OC [Example 13, (S)-5-[N-methyl-N-(2-cyclohexyl)-ethyl]-amino-2-(3,4,5-trimethoxyphenyl)-2-isopropylvaleronitrile hydrochloride]	3.3	3.4
CCCCC=CCCN(C)CCCC(C#N)(c1cc(OC)c(OC)c(OC)c1)C(C)C (stereo not drawn) [Example 15, 5-[N-methyl-N-(n-octen-3-yl)]-amino-2-(3,4,5-trimethoxyphenyl)-2-isopropylvaleronitrile hydrochloride]	6.8	7.5
COc1ccc(C(C#N)(CCCN(C)CCC2CCCCC2)C(C)C)c([N+](=O)[O-])c1OC (stereo not drawn) [Example 16, 5-[N-methyl-N-(2-cyclohexyl)ethyl]-amino-2-(2-nitro-3,4-dimethoxyphenyl)-2-isopropylvaleronitrile]	3.6	34.2
CC(C)C(C#N)(CCCN(C)CCC1=CCCCC1)c1ccccc1 (stereo not drawn) [Example 18, 5-(N-methyl-N-[2-(cyclohexen-1-yl)ethyl]}-amino-2-phenyl-2-isopropylvaleronitrile]	4	36.7
CCCCCCN(C)CCCC(C#N)(c1cc(OC)c(OC)c(OC)c1)C(C)C (stereo not drawn) [Example 23, 5-[N-methyl-N-(n-hexyl)]-amino-2-(3,4,5-trimethoxyphenyl)-2-isopropylvaleronitrile hydrochloride]	48.4	11.6
CCCCCCN(C)CCC[C@@](C#N)(c1cc(OC)c(OC)c(OC)c1)C(C)C [Example 24, (S)-5-[N-methyl-N-(n-hexyl)]-amino-2-(3,4,5-trimethoxyphenyl)-2-isopropylvaleronitrile hydrochloride]	21.1	8.6
COc1ccc(CCN(C)CCCC(C#N)(c2ccc(OC)c(OC)c2)C(C)C)cc1OC (stereo not drawn) [Verapamil, verapamil, reference compound]	177	
